# Reference: patent US20260034091A1, “Compositions and Methods for Treating Metabolic Disorders” (The Regents of the University of California, priority 2022, published 2026)
# Key:
# chow diet fed mice = assay: Tolerability and toxicity of TOFA in ad libitum fed chow mice; type: in vivo, C57BL/6J male mice; details: oral gavage
# Method: Eleven-week-old C57BL/6J male mice were fed with PicoLab Rodent Diet (Purina 5053), or chow diet, ad libitum while being treated with either control or 125 mg/kg, BID by oral gavage for three weeks. Mice weights were tracked during the entire time course. Upon study termination, serum and liver samples were collected. Serum biomarkers such as blood urea nitrogen (BUN) and creatinine were assessed by commercially available kits (abcam83362 and Cayman700460, respectively). Additionally, hepatic and serum triglyceride and cholesterol levels were measured by commercially available kits (abcam65336 and abcam65390, respectively).
# [1] = test system: CDAHFD induced late stage NAFLD/NASH in mice; assay: In-depth investigation of rescue effect of TOFA in CDAHFD induced late stage NAFLD/NASH; type: in vivo, C57BL/6J male mice; details: four weeks
# Method: Six-week-old C57BL/6J male mice were fed with a L-amino acid diet with 60 kcal % fat with 0.1% methionine and no added choline (CDAHFD; Research Diets A06071302i) for eight weeks. Ten subjects were randomly assigned to either a vehicle (control) treatment or a 125 mg/kg. BID, of TOFA treatment delivered by oral gavage for an additional four weeks. Mice weights were monitored during the entire treatment time course. Upon study termination at 12 weeks, serum and liver samples were collected. Serum liver damage biomarkers, ALT and AST, were measured by commercially available kits (abcam 105134 and abcam 105135, respectively). Hepatic and serum triglyceride levels were measured from a commercially available kit (abcam65336). Total RNA was extracted from liver tissues (Qiagen RNeasy kit 74106), and cDNA was prepared (BioRAD iScript™ Reverse Transcription) according to manufacturer's protocols. Quantitative PCR (qPCR) was performed with fast SYBR Green Mix (ThermoFisher A25742) on the QuantStudio6 System (Applied Biosciences).
# [2] = test system: CDAHFD mouse model of diet-induced NAFLD/NASH; assay: TOFA and Semaglutide single agent and combination in CDAHFD mouse model of NAFLD/NASH; type: in vivo, C57BL/6J male mice
# Method: Six-week-old C57BL/6J male mice were fed with a L-amino acid diet with 60 kcal % fat with 0.1% methionine and no added choline (CDAHFD; Research Diets A06071302i) for eight weeks. Mice were randomly assigned to treatment groups of either a vehicle (control), 250 mg/kg of TOFA, 5 nmol/kg of Semaglutide (Novo Nordisk), or a combined dose of 250 mg/kg TOFA plus 5 nmol/kg Semaglutide. TOFA was administered by oral gavage. Semaglutide dosing was up-titrated at beginning of treatment regimen and was delivered via subcutaneous injection at the back shoulder/neck flank. All treatments were delivered QD for an additional four weeks. Mice weights and food intake were monitored during the treatment time course. Upon study termination at 12 weeks, liver and serum samples were collected. Serum liver damage biomarkers, ALT and AST, were measured by commercially available kits (abcam105134 and Cayman 701640, respectively). Hepatic and serum triglyceride levels were measured using a commercially available kit (abcam65336). Total RNA was extracted from liver tissues (Qiagen RNeasy kit 74106), and cDNA was prepared (BioRAD iScript™ Reverse Transcription) according to manufacturer's protocols. Quantitative PCR (qPCR) was performed with fast SYBR Green Mix (ThermoFisher A25742) on the QuantStudio6 System (Applied Biosciences). Additional liver samples were fixed in 4% paraformaldehyde and embedded in paraffin blocks for sectioning and subsequently stained with hematoxylin and eosin (H&E) or Sirius Red with a fast green dye background.
# [3] = test system: CDAHFD diet-induced NAFLD/NASH with PPARA KO; assay: TOFA in genetic PPARA knockout mice, CDAHFD model of NAFLD/NASH; type: in vivo, PPARA knockout (PPARA KO) male mice
# Method: (§1) Six-week-old genetic PPARA knockout (PPARA KO) male mice were fed with a L-amino acid diet with 60 kcal % fat with 0.1% methionine and no added choline (CDAHFD; Research Diets A06071302i) for three weeks or fed with a 60 kcal % fat diet (DIO; Research Diets A12492i) for eight weeks before introduction of either vehicle (control) or 125 mg/kg of TOFA, BID, via oral gavage for an additional two weeks (FIG. 11A and FIG. 11J, respectively). C57BL/6J (WT) mice were fed with the CDAHFD and underwent similar experimental conditions and time course. Mice weights and adverse events were monitored during the treatment time course. Upon study termination, serum and liver samples were collected. Serum liver damage biomarkers, ALT and AST, were measured by commercially available kits (abcam105134 and abcam 105135, respectively). Hepatic and serum triglyceride levels were measured from a commercially available kit (abcam65336). Total RNA was extracted from liver tissues (Qiagen RNeasy kit 74106), and cDNA was prepared (BioRAD iScript™M Reverse Transcription) according to manufacturer's protocols. Quantitative PCR (qPCR) was performed with fast SYBR Green Mix (ThermoFisher A25742) on the QuantStudio6 System (Applied Biosciences). Protein expression levels of liver samples were measured by western blot using antibodies against ACC1/2 (CST3662, 1:1000), VLDLR (AF2258, 1:2000), CPT1A (CST12252, 1:1000), PPARA (abcam126285, 1:1000) and beta-tubulin (CST2146, 1:1000). Membranes were developed using a HRP secondary antibody (1:5000) and visualized using an enhanced chemiluminescent HRP substrate (Thermo34577). Additional liver samples were fixed in 4% paraformaldehyde and embedded in paraffin blocks for sectioning and subsequently stained with hematoxylin and eosin (H&E). Frozen fresh liver tissue was embedded in OCT, sectioned, and subsequently stained with Oil Red O.
# [4] = test system: CDAHFD diet-induced NAFLD/NASH in wild-type mice; assay: TOFA in wild-type mice on CDAHFD (comparison to PPARA KO); type: in vivo, C57BL/6J (WT) mice
# Method: as §1, with “Total RNA was extracted from liver tissues (Qiagen RNeasy kit 74106), and cDNA was prepared (BioRAD iScript™M Reverse Transcription) according to manufacturer's protocols.” left out, “Membranes were developed using a HRP secondary antibody (1:5000) and visualized using an enhanced chemiluminescent HRP substrate (Thermo34577). Additional liver samples were fixed in 4% paraformaldehyde and embedded in paraffin blocks for sectioning and subsequently stained with hematoxylin and eosin (H&E). Frozen fresh liver tissue was embedded in OCT, sectioned, and subsequently stained with Oil Red O.” left out
# [5] = 125 mg/kg, BID, three weeks, chow diet
# [6] = four weeks, TOFA 250 mg/kg oral QD, Semaglutide 5 nmol/kg s.c. QD
smiles,measurement,setting,value
"CCCCCCCCCCCCCCOc1ccc(C(=O)O)o1 [TOFA, 5-(Tetradecyloxy)-2-furoic acid]",tolerability,"chow diet fed mice; 125 mg/kg, BID, three weeks",well tolerated
same,body weight,chow diet fed mice; [5],no observed weight change
same,cholesterol levels in serum,chow diet fed mice; [5],No changes
same,cholesterol levels in the liver,chow diet fed mice; [5],No changes
same,liver triglyceride levels,chow diet fed mice; [5],observed decrease
same,serum blood urea nitrogen (BUN),chow diet fed mice; [5],no drug-induced kidney damage
same,serum creatinine,chow diet fed mice; [5],no drug-induced kidney damage
same,serum triglyceride levels,chow diet fed mice; [5],no significant change
same,oral bioavailability,chow diet fed mice; mice,orally bioavailable
same,hepatic hydrogen peroxide levels,[1]; 125 mg/kg BID oral gavage,decrease
same,liver triglyceride levels,[1]; 125 mg/kg BID oral gavage,significant decrease
same,serum ALT,[1]; 125 mg/kg BID oral gavage,trending decreases
same,serum AST,[1]; 125 mg/kg BID oral gavage,trending decreases
same,body weight,"[1]; 125 mg/kg BID oral gavage, vs vehicle",significant decrease
same,expression of genes involved in collagen biosynthesis by qPCR,"[1]; liver mRNA, 125 mg/kg BID",decreased
same,"expression of inflammation genes (Il1b, Tnfa) by RT-qPCR","[1]; liver mRNA, 125 mg/kg BID",decrease in expression
same,"genes with PPAR regulatory elements (beta-oxidation, lipogenesis) by RT-qPCR","[1]; liver mRNA, 125 mg/kg BID",upregulated
same,food intake,[2]; four weeks treatment,not due to changes in food intake
same,body weight at the end of the treatment time course,[2]; [6],smaller degree of weight loss compared to Semaglutide treated mice
same,inflammation genes (RT-qPCR of liver samples),[2]; [6],specific response of TOFA in addressing inflammation
same,mRNA levels of genes involved in collagen biosynthesis (RT-qPCR),[2]; [6],strong repressive effectives
same,serum ALT levels,[2]; [6],moderate reductions
same,serum AST levels,[2]; [6],only group to have demonstrated reduction
same,fibrotic content (Sirius red staining),"[2]; four weeks, liver sections",aforementioned histological trends are noted
same,steatosis (H&E liver sections),"[2]; four weeks, relative to control",greater reduction in steatosis
same,liver triglyceride levels,"[2]; four weeks, relative to vehicle control","stronger, significant reduction"
same,body weight,"[3]; 125 mg/kg BID oral gavage, two weeks",trending decrease in weight
same,Cpt1a mRNA (RT-qPCR),"[3]; 125 mg/kg BID, two weeks",blunted
same,hepatic steatosis (H&E),"[3]; 125 mg/kg BID, two weeks",minimal decreases in hepatic steatosis
same,lipid content by Oil Red O,"[3]; 125 mg/kg BID, two weeks",minimal changes in lipid content
same,liver triglyceride (hepatic lipid levels),"[3]; 125 mg/kg BID, two weeks",no notable decrease
same,serum ALT levels,"[3]; 125 mg/kg BID, two weeks",marginal decreases
same,serum AST levels,"[3]; 125 mg/kg BID, two weeks",marginal decreases
same,"protein expression levels of CPT1A, VLDLR, and ACC1 (western blot)",[3]; relative to vehicle control,not observed
same,Cpt1a mRNA (RT-qPCR),"[4]; 125 mg/kg BID, two weeks",induction of Cpt1a mRNA
same,"protein expression levels of CPT1A, VLDLR, and ACC1 (western blot)",[4]; relative to vehicle control,increased
